Where a name gives a salt, the structure may show the parent alone. Read-outs that look alike come from different tables or passages of the source.
Legend:
[1] = system: RSV A2; assay: RSV plaque reduction assay in Hep-G2 cells; assay type: cell-based, respiratory syncytial virus (RSV); settings: Hep-G2 cells, RSV A2, 2 days, mean of at least two experiments, read-out: RSV A2 Plaque EC50
Protocol: Compounds were subjected to RSV plaque reduction assays according to the following protocol. Plaque EC50 and cell toxicity CC50 values are a mean of at least two experiments and figures are rounded to whole units.
Hep-G2 cells (ECACC, 85011430) were passaged in flasks and seeded in 24-well plates in DMEM containing antibiotics and supplemented with 10% FBS. During inoculation and subsequent incubation, cells were cultured in DMEM containing 2% FBS. 100 plaque forming unit/well of RSV (RSV A2 ECACC, 0709161v) was mixed with eight serial dilutions of compound. Subsequently, 100 μL of the virus/compound mixtures was added to confluent Hep-G2 cell monolayers. The cells and virus/compound mixtures were incubated at 37° C. in a humidified 5% CO2 incubator for 2 h prior to removal of the inoculum and addition of 1 mL of overlay (DMEM containing 2% FBS and 0.8% CMC) containing compound dilutions. The cells and were incubated at 37° C. in a humidified 5% CO2 incubator for 2 days.
Cells were washed with PBS before adding 75/25% v/v EtOH/MeOH, for 3 min. Fixative was removed and plates were washed with PBS. A pre-titrated amount of the primary antibody was added in 200 μL PBS/2% milk powder, and plates incubated for 90 min at 37° C. The plates were washed 3 times with PBS/0.05% Tween20 before addition of rabbit anti-goat horse radish peroxidase in 200 μL PBS/2% milk powder, and incubated for 1 h at 37° C. Following three wash steps with PBS/0.05% Tween20, 200 μL ready-to-use TrueBlue was added and plates were incubated at rt for 10-15 min before washing with water. After removal of water, plates were air-dried in the dark. Plates were scanned and analysed using the Immunospot S6 Macro analyser, which is equipped with BioSpot analysis software for counting immunostained plaques (virospots). Plaque counts were used to calculate % infection relative to the mean of the plaque count in the virus control wells for RSV. The EC50 value was calculated as 50% reduction in signal, respectively, by interpolation of inhibition curves fitted with a 4-parameter nonlinear regression with a variable slope in Dotmatics. Plaque EC50 and cell toxicity CC50 values are a mean of at least two experiments and figures are rounded to whole units.

[2] = system: Hep-G2 cells; assay: Cell cytotoxicity CC50; assay type: cell-based; settings: mean of at least two experiments unless (n = 1)
[3] = Cell cytotoxicity CC50; assay type: cell-based; settings: human, Hep-G2 cells; mean of at least two experiments unless (n = 1)
[4] = In vivo pharmacokinetics in rats (IV and PO); parameters: species or system Male rats [Sprague Dawley (SD)]; settings: male SD rat
Protocol: The pharmacokinetics of compounds were studied in vivo in rats at doses of 1 mg/kg (IV) and 10 mg/kg (PO).
Male rats [Sprague Dawley (SD)] surgically prepared with a jugular vein cannula were treated with experimental compounds via intravenous administration (IV; n=3; 1 mg/kg) or oral administration (PO; n=3; 10 mg/kg). Compounds were formulated as a solution in 40:60 dimethylacetamide:saline (IV administration) and a solution of 10% DMSO, 10% cremaphor in water (80%) (PO administration). […] Serial blood samples were collected via the cannula at 0.02, 0.08, 0.25, 0.5, 1, 2, 4, 6, 8 and 24 h post IV dosing of compound, and at 0.08, 0.25, 0.5, 1, 2, 4, 6, 8 and 24 h post oral dosing of compound, and plasma was prepared by centrifugation and stored immediately at −80° C. Samples were subsequently thawed, prepared for analysis by protein precipitation with acetonitrile, and analysed by tandem LCMS using electrospray ionisation using a matrix-matched calibration curve. PK parameters were calculated from the resulting data.

[5] = Hepatocyte stability, human; assay type: in vitro ADME; settings: cryopreserved pooled hepatocytes, 3 μM compound, 60 min, read-out: Liver Hepatocyte Stability t1/2
Protocol: (§1) Compounds were subjected to the following assays to investigate liver microsomal stability and hepatocyte stability.
(§2) Cryopreserved pooled hepatocytes were purchased from a reputable commercial supplier and stored in liquid nitrogen prior to use. Williams E media supplemented with 2 mM L-glutamine and 25 mM HEPES and test compound (final substrate concentration 3 μM; final DMSO concentration 0.25%) are pre-incubated at 37° C. prior to the addition of a suspension of cryopreserved hepatocytes (final cell density 0.5 ×10^6 viable cells/mL in Williams E media supplemented with 2 mM L-glutamine and 25 mM HEPES) to initiate the reaction. The final incubation volume is 500 μL. Two control compounds were included with each species, alongside appropriate vehicle control. The reactions were stopped by transferring 50 μL of incubate to 100 μL acetonitrile containing internal standard at the appropriate time points. Samples were removed at 6 time points (0, 5, 15, 30, 45 and 60 min) over the course of a 60 min experiment. The termination plates were centrifuged at 2500 rpm at 4° C. for 30 min to precipitate the protein.
(§3) Following protein precipitation, the sample supernatants were combined in cassettes of up to 4 compounds and analysed using generic LC-MS/MS conditions. From a plot of In peak area ratio (compound peak area/internal standard peak area) against time, the gradient of the line was determined. Subsequently, half-life (t1/2) and intrinsic clearance (CLint) were calculated.

[6] = Hepatocyte stability, rat; assay type: in vitro ADME; settings: cryopreserved pooled hepatocytes, 3 μM compound, 60 min, read-out: Liver Hepatocyte Stability t1/2
Protocol: as §1, §2, §3

[7] = Hepatocyte stability, dog; assay type: in vitro ADME; settings: cryopreserved pooled hepatocytes, 3 μM compound, 60 min, read-out: Liver Hepatocyte Stability t1/2
Protocol: as §1, §2, §3

[8] = Liver microsomal stability, rat; assay type: in vitro ADME; settings: 1 μM compound, NADPH; for half-life at 1 μM: pooled liver microsomes, pH 7.4, 0.5 mg/mL protein, read-out: Liver Microsomal Stability t1/2
Protocol: as §1
(§4) Pooled liver microsomes were purchased from a reputable commercial supplier and stored at −80° C. prior to use. Microsomes (final protein concentration 0.5 mg/mL), 0.1 M phosphate buffer pH 7.4 and test compound (final substrate concentration 1 μM; final DMSO concentration 0.25%) were pre-incubated at 37° C. prior to the addition of NADPH (final concentration 1 mM) to initiate the reaction. The final incubation volume was 50 μL. A control incubation was included for each compound tested where 0.1 M phosphate buffer pH 7.4 was added instead of NADPH (minus NADPH). Two control compounds were included with each species. All incubations were performed singularly for each test compound. Each compound was incubated for 0, 5, 15, 30 and 45 min. The control (minus NADPH) was incubated for 45 min only. The reactions were stopped by transferring incubate into acetonitrile at the appropriate time points, in a 1:3 ratio. The termination plates are centrifuged at 3,000 rpm for 20 min at 4° C. to precipitate the protein. Following protein precipitation, the sample supernatants were combined in cassettes of up to 4 compounds, internal standard added, and samples analysed by LC-MS/MS. From a plot of In peak area ratio (compound peak area/internal standard peak area) against time, the gradient of the line was determined. Subsequently, half-life (t1/2) and intrinsic clearance (CLint) were calculated.

[9] = Liver microsomal stability, dog; assay type: in vitro ADME; settings: 1 μM compound, NADPH; for half-life at 1 μM: pooled liver microsomes, pH 7.4, 0.5 mg/mL protein, read-out: Liver Microsomal Stability t1/2
Protocol: as §1, §4

[10] = Liver microsomal stability, human; assay type: in vitro ADME; settings: 1 μM compound, NADPH; for half-life at 1 μM: pooled liver microsomes, pH 7.4, 0.5 mg/mL protein, read-out: Liver Microsomal Stability t1/2
Protocol: as §1, §4

[11] = human respiratory syncytial virus, HepG2, 48 h
[12] = Sprague Dawley, plasma, study IV 1 mg/kg, PO 10 mg/kg

Compound	EC50 [1] [nM]	CC50 [2] [nM]	EC50 [1, 11] [nM]	CC50 [3] [nM]	half-life at 1 μM [8] [h]	half-life at 1 μM [9] [h]	half-life at 1 μM [10] [h]	other results
NCC(=O)OCc1ccc(-c2nn3cccnc3c2C(=O)N[C@H]2N=C(c3ccccc3)c3ccccc3NC2=O)c(F)c1 [Example 29, 3-Fluoro-4-(3-{[(3S)-2-oxo-5-phenyl-1,3-dihydro-1,4-benzodiazepin-3-yl]carbamoyl}pyrazolo[1,5-a]pyrimidin-2-yl)phenyl]methyl aminoacetate hydrochloride]	49	> 25000						
CS(=O)(=O)c1ccc(-c2nn3cccnc3c2C(=O)N[C@H]2N=C(c3ccccc3)c3cccc(F)c3NC2=O)c(F)c1 [Example 7, 2-(2-Fluoro-4-methylsulfonylphenyl)-N-[(3S)-9-fluoro-2-oxo-5-phenyl-1,3-dihydro-1,4-benzodiazepin-3-yl]pyrazolo[1,5-a]pyrimidine-3-carboxamide]			9	> 25000				half-life ([4]; Sprague Dawley, plasma, IV 1 mg/kg, read-out: IV t1/2 (converted)): 1.6 h; half-life ([4]; Sprague Dawley, plasma, PO 10 mg/kg, read-out: PO t1/2 (converted)): 2.5 h; Vd [4, 12]: 1.4 L/kg; clearance [4, 12]: 13.1 mL/min/kg; Cmax ([4]; Sprague Dawley, plasma, study IV 1 mg/kg, PO 10 mg/kg, route not given): 2340 ng/mL; AUC(0-t) ([4]; Sprague Dawley, PO 10 mg/kg, plasma, read-out: PO AUClast): 24800 ng·h/mL; F ([4]; PO 10 mg/kg vs IV 1 mg/kg): 188%; half-life at 3 μM [5]: 6.28 h; half-life at 3 μM [6]: 85.7 h; half-life at 3 μM [7]: 0.95 h
CC(C)(O)c1ccc(-c2nn3cccnc3c2C(=O)N[C@H]2N=C(c3ccccc3)c3cccc(F)c3NC2=O)c(F)c1 [Example 19, 2-[2-Fluoro-4-(2-hydroxypropan-2-yl)phenyl]-N-[(3S)-9-fluoro-2-oxo-5-phenyl-1,3-dihydro-1,4-benzodiazepin-3-yl]pyrazolo[1,5-a]pyrimidine-3-carboxamide]			8.5	> 25000	2.43	1.22	2.82	
2-[2-Fluoro-4-(hydroxymethyl)phenyl]-N-[(3S)-2-oxo-5-phenyl-1,3-dihydro-1,4-benzodiazepin-3-yl]pyrazolo[1,5-a]pyrimidine-3-carboxamide [Example 2]	40	> 25000						Liver Microsomal Stability t1/2 ([8]; rat liver microsomes, 0.5 mg/mL protein): 0.957 h; Liver Microsomal Stability t1/2 ([9]; dog liver microsomes, 0.5 mg/mL protein): 0.887 h; Liver Microsomal Stability t1/2 ([10]; human liver microsomes, 0.5 mg/mL protein): 1.95 h
CC(O)c1ccc(-c2nn3cccnc3c2C(=O)N[C@H]2N=C(c3ccccc3)c3cccc(F)c3NC2=O)c(F)c1 (single isomer, unassigned) [Example 17-2, 2-[2-Fluoro-4-[(1R*)-1-hydroxyethyl]phenyl]-N-[(3S)-9-fluoro-2-oxo-5-phenyl-1,3-dihydro-1,4-benzodiazepin-3-yl]pyrazolo[1,5-a]pyrimidine-3-carboxamide]	7.8	> 2500						
CCn1cc(-c2nn3cccnc3c2C(=O)N[C@H]2N=C(c3ccccc3)c3cccc(F)c3NC2=O)cn1 [Example 13, 2-(1-Ethylpyrazol-4-yl)-N-[(3S)-9-fluoro-2-oxo-5-phenyl-1,3-dihydro-1,4-benzodiazepin-3-yl]pyrazolo[1,5-a]pyrimidine-3-carboxamide]			58	> 25000	7.52	6.82	8.93	
CC(O)c1ccc(-c2nn3cccnc3c2C(=O)N[C@H]2N=C(c3ccccc3)c3ccccc3NC2=O)c(F)c1 (single isomer, unassigned) [Example 16-2, 2-[2-Fluoro-4-[(1R*)-1-hydroxyethyl]phenyl]-N-[(3S)-2-oxo-5-phenyl-1,3-dihydro-1,4-benzodiazepin-3-yl]pyrazolo[1,5-a]pyrimidine-3-carboxamide]	11	> 2500						
O=C(N[C@H]1N=C(c2ccccc2)c2cccc(F)c2NC1=O)c1c(-c2cnn(CC(F)(F)F)c2)nn2cccnc12 [Example 3, N-[(3S)-9-fluoro-2-oxo-5-phenyl-1,3-dihydro-1,4-benzodiazepin-3-yl]-2-[1-(2,2,2-trifluoroethyl)pyrazol-4-yl]pyrazolo[1,5-a]pyrimidine-3-carboxamide]			66	> 25000	3.48	1.78	> 2.33	
O=C(N[C@H]1N=C(c2ccccc2)c2cccc(F)c2NC1=O)c1c(-c2cnn(C3CCOCC3)c2)nn2cccnc12 [Example 6, N-[(3S)-9-fluoro-2-oxo-5-phenyl-1,3-dihydro-1,4-benzodiazepin-3-yl]-2-[1-(oxan-4-yl)pyrazol-4-yl]pyrazolo[1,5-a]pyrimidine-3-carboxamide]			49	> 25000	1.42	2.07	4.32	

Reference: US20240173332A1, “BENZO[…] TREATING OR PREVENTING RESPIRATORY SYNCYTIAL VIRUS INFECTION” (Pfizer Inc., priority 2021, published 2024)
